The values below come from ChEMBL document CHEMBL1268920, “Design and synthesis of aminohydantoins as potent and selective human β-secretase (BACE1) inhibitors with enhanced brain permeability” (Bioorg Med Chem Lett, 2010).

Test system in the first data set: not listed separately
Put plainly: Ratio of AUC in brain to plasma in Tg2576 mouse. The note with it: brain and plasma, read-out: Ratio AUC. In kind it is ADME.
On to `CN1C(=O)[C@@](c2ccc(OC(F)(F)F)cc2)(c2ccc(F)c(-c3cncnc3)c2)N=C1N`, for which the Kp amounted to 0.1. In the case of `CN1C(=O)C(c2ccccc2)(c2ccccc2)N=C1N`, the Kp amounted to 0.8.

On to `NC1=NC(c2ccccc2)(c2ccccc2)C2=NCCCN12`, for which the Kp was found to be 1. Take `COc1ccc([C@]2(c3ccc(F)c(-c4cccnc4F)c3)N=C(N)N(C)C2=O)cc1C`: the Kp turned out to be 0.1.

Another data set relates to Brain. The data set can be described thus: Permeability across brain in Tg2576 mouse at 100 mg/kg, po. Format: ADME, organism-based. Further details: dose 100 mg/kg, route oral. The conditions noted are these: in vivo.
`COc1ccc([C@]2(c3cccc(-c4cccnc4OC)c3)N=C(N)N(C)C2=O)cc1C`: the permeability stood at 7%.

Regarding `CN1C(=O)[C@@](c2ccc(OC(F)(F)F)cc2)(c2cccc(-c3cccnc3)c2)N=C1N`, the permeability came out at 10%. Turning to `COc1ccc([C@]2(c3cccc(-c4cncnc4)c3)N=C(N)N(C)C2=O)cc1C`, the permeability came out at 5%. The molecule `CN1C(=O)C(c2ccccc2)(c2ccccc2)N=C1N` registered a permeability of 81%. Same read-out and setting: the figure for `CN1C(=O)[C@@](c2ccc(OC(F)(F)F)cc2)(c2cccc(-c3cccnc3F)c2)N=C1N` is 10%. Regarding `CN1C(=O)[C@@](c2ccc(OC(F)F)cc2)(c2cccc(-c3cc(F)cnc3F)c2)N=C1N`, the permeability was found to be 9%.

`COc1ccc([C@]2(c3cccc(-c4cccnc4)c3)N=C(N)N(C)C2=O)cc1C` yielded a permeability of 15%.

Take `CN1C(=O)[C@](c2ccccc2)(c2ccc(OC(F)F)cc2)N=C1N`: the permeability came to 90%. In the case of `COc1ccc([C@]2(c3cccc(-c4cccnc4F)c3)N=C(N)N(C)C2=O)cc1C`, the permeability amounted to 10%.

Molecule `CN1C(=O)[C@@](c2ccc(OC(F)F)cc2)(c2cccc(-c3cccnc3F)c2)N=C1N` returned a permeability of 9%.
